In patent US20260242391A1 (priority 2023, published 2026) one finds IC50 and EC50 data, which are given here for 15 compounds.

One data set can be described thus: in vitro. The following applies: human.
Another data set relates to HL-60. Description: HL-60 differentiation potency. Type of data set: cell-based. The following applies: Homo sapiens.

Structures are written as SMILES. Where only a bound is given, the exact number is not on record here.

Regarding `COc1cc(CO[C@H]2O[C@@H]3O[C@@]4(C)CC[C@H]5[C@H](C)CC[C@@H]([C@H]2C)[C@@]35OO4)ccc1C(=O)O` [Compound 35, 2-methoxy-4-((((3R,5aS,6R, 8aS,9R,10S,12R, 12aR)-3,6,9-trimethyldeca-hydro-12H-3,12-epoxy[1,2]dioxepino[4,3-i]isochromen-10-yl)oxy)methyl) benzoic acid], the IC50 in the data set “in vitro” is above 20000 nM. Moreover, in the data set with HL-60, the EC50 is 481 nM.
The matching figures for `C[C@H]1[C@@H](OC(=O)Cn2ccc(C(F)(F)F)n2)O[C@@H]2O[C@@]3(C)CC[C@H]4[C@H](C)CC[C@@H]1[C@@]24OO3` [Compound 145, (3R,5aS,6R,8aS, 9R,10R,12R, 12aR)-3,6,9-trimethyldeca-hydro-12H-3,12-epoxy[1,2] dioxepino[4,3-i] isochromen-10-yl 2-(3-(trifluoro-methyl)-1H-pyrazol-1-yl)acetate]: 110 nM and 73.2 nM.
The matching figures for `CNC(=O)CCN[C@@H]1O[C@@H]2O[C@@]3(C)CC[C@H]4[C@H](C)CC[C@@H]([C@H]1C)[C@@]24OO3` [Compound 95, N-methyl-3-(((3R,5aS,6R,8aS, 9R,10R,12R, 12aR)-3,6,9-trimethyldeca-hydro-12H-3,12-epoxy[1,2]dioxepino[4,3-i]isochromen-10-yl)amino) propanamide]: 352 nM and 348 nM.
The matching figures for `C[C@H]1[C@@H](OCC23CCC(C(=O)O)(CC2)CC3)O[C@@H]2O[C@@]3(C)CC[C@H]4[C@H](C)CC[C@@H]1[C@@]24OO3` [Compound 75, 4-((((3R,5aS,6R, 8aS,9R,10S,12R, 12aR)-3,6,9-trimethyldeca-hydro-12H-3,12-epoxy[1,2]dioxepino[4,3-i]isochromen-10-yl)oxy)methyl) bicyclo[2.2.2] octane-1-carboxylic acid]: above 20000 nM and 1180 nM.
Turning to `Cc1cc(C(=O)O)ccc1CO[C@@H]1O[C@@H]2O[C@@]3(C)CC[C@H]4[C@H](C)CC[C@@H]([C@H]1C)[C@@]24OO3` [Compound 44, 3-methyl-4-((((3R,5aS,6R,8aS, 9R,10R,12R, 12aR)-3,6,9-trimethyldeca-hydro-12H-3,12-epoxy[1,2]dioxepino[4,3-i]isochromen-10-yl)oxy)methyl) benzoic acid], in the data set “in vitro”, the IC50 is above 20000 nM. This compound returned an EC50 with HL-60 of 1010 nM.
Turning to `C[C@H]1[C@@H](OCc2ccc(B(O)O)cc2)O[C@@H]2O[C@@]3(C)CC[C@H]4[C@H](C)CC[C@@H]1[C@@]24OO3` [Compound 169, (4-((((3R,5aS,6R,8aS, 9R,10S,12R, 12aR)-3,6,9-trimethyldeca-hydro-12H-3,12-epoxy[1,2]dioxepino[4,3-i]isochromen-10-yl)oxy)methyl)phenyl)boronic acid], in “in vitro”, half-maximal inhibition (IC50) was put at 270 nM. The EC50 with HL-60 came out at 128 nM.
Consider `C[C@H]1[C@@H](OC[C@H]2CC[C@@H](C(=O)NC3CC3)CC2)O[C@@H]2O[C@@]3(C)CC[C@H]4[C@H](C)CC[C@@H]1[C@@]24OO3` [Compound 143, (1R,4s)-N-cyclopropyl-4-((((3R,5aS,6R,8aS, 9R,10S,12R, 12aR)-3,6,9-trimethyldeca-hydro-12H-3,12-epoxy[1,2]dioxepino[4,3-i]isochromen-10-yl)oxy)methyl) cyclohexane-1-carboxamide], for which the IC50 in “in vitro” amounted to 1000 nM. In addition, the midpoint of the response in the data set with HL-60, the EC50, lay at 72.6 nM.
Take `CNC(=O)N1CCN([C@@H]2O[C@@H]3O[C@@]4(C)CC[C@H]5[C@H](C)CC[C@@H]([C@H]2C)[C@@]35OO4)CC1` [Compound 67, N-methyl-4-((3R,5aS,6R,8aS, 9R,10R,12R, 12aR)-3,6,9-trimethyldeca-hydro-12H-3,12-epoxy[1,2]dioxepino[4,3-i]isochromen-10-yl)piperazine-1-carboxamide]: the IC50 in “in vitro” was above 20000 nM. In addition, the EC50 with HL-60 was above 20000 nM.
For `CC(C)C(C(=O)O)c1ccc(O[C@H]2O[C@@H]3O[C@@]4(C)CC[C@H]5[C@H](C)CC[C@@H]([C@H]2C)[C@@]35OO4)cc1` (stereo partly drawn) [Compound 146, 3-methyl-2-(4-(((3R,5aS,6R,8aS, 9R,10S,12R, 12aR)-3,6,9-trimethyldeca-hydro-12H-3,12-epoxy[1,2]dioxepino[4,3-i]isochromen-10-yl)oxy)phenyl) butanoic acid], in the data set “in vitro”, the IC50 is 800 nM. For the same compound, a half-maximal effect with HL-60 (EC50) was put at 59.6 nM.
Turning to `C[C@H]1[C@H](N2CCCCC2)O[C@@H]2O[C@@]3(C)CC[C@H]4[C@H](C)CC[C@@H]1[C@@]24OO3` [Compound 63, 1-((3R,5aS,6R,8aS, 9R,10R,12R, 12aR)-3,6,9-trimethyldeca-hydro-12H-3,12-epoxy[1,2]dioxepino[4,3-i]isochromen-10-yl)piperidine], in “in vitro”, the IC50 was above 20000 nM. This compound also gave an EC50 in the data set with HL-60 above 20000 nM.
`C[C@H]1[C@H](OCC(=O)N2C[C@H]3[C@@H]([C@H]2C(=O)O)C3(C)C)O[C@@H]2O[C@@]3(C)CC[C@H]4[C@H](C)CC[C@@H]1[C@@]24OO3` [Compound 162, (1R,2S,5S)-6,6-dimethyl-3-(2-(((3R,5aS,6R,8aS, 9R,10R,12R, 12aR)-3,6,9-trimethyldeca-hydro-12H-3,12-epoxy[1,2]dioxepino[4,3-i]isochromen-10-yl)oxy)acetyl)-3-azabicyclo[3.1.0] hexane-2-carboxylic acid] returned a concentration for half-maximal inhibition (IC50) in the data set “in vitro” above 20000 nM. The same compound registered an EC50 in the data set on HL-60 of 5750 nM.
Compound `C[C@H]1[C@@H](Oc2ccc(CCCCC(=O)O)cc2)O[C@@H]2O[C@@]3(C)CC[C@H]4[C@H](C)CC[C@@H]1[C@@]24OO3` [Compound 72, 5-(4-(((3R,5aS, 6R,8aS,9R,10S, 12R,12aR)-3,6,9-trimethyldeca-hydro-12H-3,12-epoxy[1,2]dioxepino[4,3-i]isochromen-10-yl)oxy)phenyl) pentanoic acid] came in with a concentration for half-maximal inhibition (IC50) in “in vitro” of 777 nM. Further, in the data set with HL-60, the EC50 was 113 nM.
For `C[C@H]1[C@@H](OCc2ccc(C(=O)O)o2)O[C@@H]2O[C@@]3(C)CC[C@H]4[C@H](C)CC[C@@H]1[C@@]24OO3` [Compound 32, 5-((((3R,5aS,6R, 8aS,9R,10S,12R, 12aR)-3,6,9-trimethyldeca-hydro-12H-3,12-epoxy[1,2]dioxepino[4,3-i]isochromen-10-yl)oxy)methyl) furan-2-carboxylic acid], the IC50 in the data set “in vitro” was above 20000 nM. This compound showed an EC50 with HL-60 of 333 nM.
In the case of `C[C@H]1[C@@H](OC[C@H]2CC[C@@H](C(=O)O)CC2)O[C@@H]2O[C@@]3(C)CC[C@H]4[C@H](C)CC[C@@H]1[C@@]24OO3` [Compound 11, (1R,4s)-4-((((3R,5aS,6R,8aS, 9R,10S,12R, 12aR)-3,6,9-trimethyldeca-hydro-12H-3,12-epoxy[1,2]dioxepino[4,3-i]isochromen-10-yl)oxy)methyl) cyclohexane-1-carboxylic acid], the IC50 in the data set “in vitro” is above 20000 nM. Further, the response in the data set on HL-60 was half-maximal at 87.4 nM (EC50).
In turn, `C[C@H]1[C@@H](OCc2cc(C(=O)O)ccc2Cl)O[C@@H]2O[C@@]3(C)CC[C@H]4[C@H](C)CC[C@@H]1[C@@]24OO3` [Compound 167, 4-chloro-3-((((3R,5aS,6R,8aS, 9R,10S,12R, 12aR)-3,6,9-trimethyldeca-hydro-12H-3,12-epoxy[1,2]dioxepino[4,3-i]isochromen-10-yl)oxy)methyl) benzoic acid] returned an IC50 in the data set “in vitro” of 10500 nM. This compound registered an EC50 in the data set on HL-60 of 132 nM.

Usually IC50 stands for the concentration that inhibits the measured activity by half. In general, EC50 refers to the concentration at which the effect is half-maximal.
